# Laboratory results published in ChEMBL document CHEMBL1130892, “Novel cytokine release inhibitors. Part I: Triterpenes” (Bioorg Med Chem Lett, 1998).
# Legend:
# [1] = Inhibitory activity against LPS-stimulated IL1-beta release by cultured human monocytes at a concentration 1000 nM; type: functional
# [2] = biological target: T1, Caspase-1 (Homo sapiens, UniProt P29466); assay: Inhibitory activity against IL-1 beta converting enzyme was evaluated.
# T1 sequence (P29466 whole entry): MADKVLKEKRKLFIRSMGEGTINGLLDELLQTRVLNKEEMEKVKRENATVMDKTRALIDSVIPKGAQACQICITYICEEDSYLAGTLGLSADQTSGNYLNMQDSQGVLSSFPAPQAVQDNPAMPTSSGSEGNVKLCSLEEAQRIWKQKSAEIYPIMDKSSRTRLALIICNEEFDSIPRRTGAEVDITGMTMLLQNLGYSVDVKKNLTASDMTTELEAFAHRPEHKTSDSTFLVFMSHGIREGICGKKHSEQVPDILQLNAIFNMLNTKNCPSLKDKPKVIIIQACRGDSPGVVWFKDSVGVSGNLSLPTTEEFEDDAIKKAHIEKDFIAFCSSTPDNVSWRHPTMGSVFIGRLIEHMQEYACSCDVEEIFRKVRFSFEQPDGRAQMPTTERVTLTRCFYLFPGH
# [3] = Inhibitory activity against LPS-stimulated 1L-1beta release by cultured human monocytes; type: functional
# [4] = tested on: Rattus norvegicus; assay: Compound was tested for reduction of streptococcal cell wall(SCW) in rats at a dose of 0.67 mg/kg; type: functional
SMILES,IC50 [3] [nM],other results
COC(=O)[C@]1(C)CC[C@]2(C)CC[C@]3(C)C4=CCc5c(cc(OC)c(OC)c5C)[C@]4(C)CC[C@@]3(C)[C@@H]2C1,,inhibition at 1 µM [1]: 8%
O=C1C=CC(=O)C=C1 [BENZOQUINONE],,IC50 [2]: 3000 nM
CC1=C(O)C(=O)C=C2C1=CC=C1[C@@]2(C)CC[C@@]2(C)[C@@H]3C[C@](C)(C(=O)O)CC[C@]3(C)CC[C@]12C [CELASTROL],40,
COc1ccc2c(c1)c(CC(=O)O)c(C)n2C(=O)c1ccc(Cl)cc1 [INDOMETHACIN],,SCW reduction [4]: 70%
COC(=O)[C@]1(C)CC[C@]2(C)CC[C@]3(C)C4=CC=C5C(=CC(=O)C(O)=C5C)[C@]4(C)CC[C@@]3(C)[C@@H]2C1 [PRISTIMERIN],56,
COC(=O)[C@]1(C)CC[C@]2(C)CC[C@]3(C)C4=CCc5c(cc(OC(C)=O)c(OC(C)=O)c5C)[C@]4(C)CC[C@@]3(C)[C@@H]2C1 [PRISTIMEROL DIACETATE],79,
COC(=O)[C@]1(C)CC[C@]2(C)CC[C@]3(C)C4=CCc5c(cc(O)c(O)c5C)[C@]4(C)CC[C@@]3(C)[C@@H]2C1 [PRISTIMEROL],260,
CC1=C(O)C(=O)C=C2C1=CC=C1[C@@]2(C)CC[C@@]2(C)[C@@H]3C[C@@H](C)C(=O)C[C@]3(C)CC[C@]12C [TINGENONE],58,
